# Patent publication US6989397B1, “Iron chelators and uses thereof” (University of Queensland, priority 1999, dated 2006)
# Several values for one entry are separate records, joined by “and”; a condition that tells them apart may be missing. Identical values can stand only once.
# Tested on: SK-Mel-28 melanoma cells
# Experiment: 59Fe release from prelabelled cells (iron efflux)
# Format: cell-based, human
# Details: labelled 3 h with 59Fe-transferrin 0.75 μM, reincubated 3 h at 37° C., chelators 50 μM, DFO 100 μM, Mean±SD
# Procedure: (§1) The effect of chelators on ^59Fe uptake from ^59Fe-Tf and ^59Fe release from prelabelled cells was studied using standard procedures reported previously (Richardson et al., 1994, J. Lab Clin. Med. 124 660–71). The amount of ^59Fe internalized by the cells was measured by incubation with the general protease pronase (1 mg/ml) for 30 min at 4° C. to remove membrane-bound ^59Fe and Tf (Richardson et al., 1990; Baker et al., 1998, Biochim. Biophys. Acta 1380 21–30).
# Table 1. The effect of DFO, 311, PCTH, PCBH, or PCBHH on ^59Fe release from BE-2 neuroblastoma cells, SK-N-MC neuroepithelioma cells, and SK-Mel-28 melanoma cells. Cells were labeled for 3 h at 37° C. with ^59Fe-transferrin (0.75 μM), washed, and then reincubated with the chelators for 3 h at 37° C. […] Results are Mean±SD of three determinations in a typical experiment.
row,Structure (SMILES),% Cellular Iron Released [%]
1,"O=C(NN=Cc1c(O)ccc2ccccc12)c1ccncc1 [Chelator 311, 2-hydroxy-1-naphthylaldehyde isonicotinoyl hydrazone, reference compound]",70 ± 1
2,"CC(=O)N(O)CCCCCNC(=O)CCC(=O)N(O)CCCCCNC(=O)CCC(=O)N(O)CCCCCN [DFO, desferrioxamine, reference compound]",27 ± 1
3,"O=C(NN=Cc1ccccn1)c1ccccc1 [PCBH, 2-pyridylcarboxaldehyde benzoyl hydrazone]",54 ± 4
4,"O=C(NN=Cc1ccccn1)c1cccs1 [PCTH, 2-pyridylcarboxaldehyde 2-thiophenecarboxyl hydrazone]",57 ± 6

# Tested on: SK-N-MC neuroepithelioma cells
# Experiment: internalized 59Fe uptake from 59Fe-transferrin
# Format: cell-based, human
# Details: BE-2, SK-N-MC and SK-Mel-28 cell lines together; 3 hr; 50 μM; Table 2
# Procedure: The effect of chelators on ^59Fe uptake from ^59Fe-Tf and ^59Fe release from prelabelled cells was studied using standard procedures reported previously (Richardson et al., 1994, J. Lab Clin. Med. 124 660-71). The amount of ^59Fe internalized by the cells was measured by incubation with the general protease pronase (1 mg/ml) for 30 min at 4° C. to remove membrane-bound ^59Fe and Tf (Richardson et al., 1990; Baker et al., 1998, Biochim. Biophys. Acta 1380 21-30). […] To determine the ability of the chelators to inhibit ^59Fe uptake from ^59Fe-Tf (0.75 μM). […] Table 2. The effect of DFO, 311, […], or PCBHH on internalized ^59Fe uptake from ^59Fe-transferrin by BE-2 neuroblastoma cells, SK-N-MC neuroepithelioma cells, and SK-Mel-28 melanoma cells. Cells were incubated with the chelators and ^59Fe-transferrin (0.75 μM) for 3 h at 37° C., washed, and incubated for 30 min at 4° C. with pronase (1 mg/ml) to separate the internalized from the membrane-bound ^59Fe. All chelators were screened at a concentration of 50 μM except for DFO which was examined at 100 μM. Results are mean±SD (three determinations) from a typical experiment.
row,Structure (SMILES),"59Fe uptake from 59Fe-Tf, % of the control, range over all 3 cell lines"
1,"O=C(NN=Cc1c(O)ccc2ccccc12)c1ccncc1 [Chelator 311, 2-hydroxy-1-naphthylaldehyde isonicotinoyl hydrazone, reference compound]",8–10 % of the control

# Same assay, conditions: SK-N-MC; 59Fe-transferrin 0.75 μM, 3 h at 37° C.; chelators 50 μM, DFO 100 μM; mean±SD
row,Structure (SMILES),Internalised Iron Uptake (% Control)
1,"O=C(NN=Cc1c(O)ccc2ccccc12)c1ccncc1 [Chelator 311, 2-hydroxy-1-naphthylaldehyde isonicotinoyl hydrazone, reference compound]",10 ± 4 % Control
2,"CC(=O)N(O)CCCCCNC(=O)CCC(=O)N(O)CCCCCNC(=O)CCC(=O)N(O)CCCCCN [DFO, desferrioxamine, reference compound]",100 % Control and 100 ± 6 % Control
3,"O=C(NN=Cc1ccccn1)c1ccccc1 [PCBH, 2-pyridylcarboxaldehyde benzoyl hydrazone]",20 ± 2 % Control
4,"O=C(NN=Cc1ccccn1)c1cccs1 [PCTH, 2-pyridylcarboxaldehyde 2-thiophenecarboxyl hydrazone]",16 ± 1 % Control

# Same assay, conditions: SK-N-MC; 3 hrs at 37° C.; chelators 50 μM, DFO 100 μM; FIG. 2B screening experiment
row,Structure (SMILES),"59Fe uptake from 59Fe-Tf, % of the control value (FIG. 2B)"
1,"CC(=O)N(O)CCCCCNC(=O)CCC(=O)N(O)CCCCCNC(=O)CCC(=O)N(O)CCCCCN [DFO, desferrioxamine, reference compound]",91 % of the control
2,"O=C(NN=Cc1ccco1)c1ccncc1 [FIH, 2furoylcarboxaldehyde isonicotinoyl hydrazone]",no effect

# Tested on: SK-Mel-28 melanoma cells
# Experiment: internalized 59Fe uptake from 59Fe-transferrin
# Format: cell-based, human
# Details: 59Fe-transferrin 0.75 μM, 3 h at 37° C., chelators 50 μM, DFO 100 μM, mean±SD
# Procedure: as §1
# Table 2. The effect of DFO, 311, PCTH, PCBH, or PCBHH on internalized ^59Fe uptake from ^59Fe-transferrin by BE-2 neuroblastoma cells, SK-N-MC neuroepithelioma cells, and SK-Mel-28 melanoma cells. Cells were incubated with the chelators and ^59Fe-transferrin (0.75 μM) for 3 h at 37° C., washed, and incubated for 30 min at 4° C. with pronase (1 mg/ml) to separate the internalized from the membrane-bound ^59Fe. All chelators were screened at a concentration of 50 μM except for DFO which was examined at 100 μM. Results are mean±SD (three determinations) from a typical experiment.
row,Structure (SMILES),Internalised Iron Uptake (% Control)
1,"O=C(NN=Cc1c(O)ccc2ccccc12)c1ccncc1 [Chelator 311, 2-hydroxy-1-naphthylaldehyde isonicotinoyl hydrazone, reference compound]",9 ± 1 % Control
2,"CC(=O)N(O)CCCCCNC(=O)CCC(=O)N(O)CCCCCNC(=O)CCC(=O)N(O)CCCCCN [DFO, desferrioxamine, reference compound]",98 % Control and 98 ± 7 % Control
3,"O=C(NN=Cc1ccccn1)c1ccccc1 [PCBH, 2-pyridylcarboxaldehyde benzoyl hydrazone]",36 ± 6 % Control
4,"O=C(NN=Cc1ccccn1)c1cccs1 [PCTH, 2-pyridylcarboxaldehyde 2-thiophenecarboxyl hydrazone]",38 ± 6 % Control

# Tested on: SK-N-MC neuroepithelioma cells
# Experiment: 3H-thymidine, 3H-leucine or 3H-uridine incorporation
# Format: cell-based, human
# Details: 20 hr with chelators 50 μM, DFO 100 μM, then label 2 h, Mean±SD
# Procedure: Labelling of cells with ^3H-thymidine (20 Ci/mmol: Dupont NEN, MA, U.S.A.), ^3H-uridine (42.7 Ci/mmol/Dupont NEN, MA, U.S.A.) and ^3H-leucine (52 Ci/mmol: Dupont NEN) was estimated after precipitation with trichloroacetic acid (TCA). After a 20 hr incubation with the chelators, ^3H-leucine, ^3H-uridine or ^3H-thymidine (1 μCi/ml) were then added for 2 hrs at 37° C. Subsequently, petri dishes containing cell cultures were placed on ice and washed four times with ice-cold Hanks' balanced salt solution (BSS) and the cells detached from the plate using 1 mM EDTA in Ca/Mg-free saline. The cells were then pelleted by centrifugation, the supernatant removed and the pellet frozen at −70° C. After thawing the cells on ice, 1 ml of ice-cold 20% TCA was added and the solution then vortexed and kept on ice for 1 hr with periodic mixing. This solution was then centrifuged at 15,000 rpm for 15 mins at 4° C. and the supernatant removed. The pellet was then washed twice with 1 ml of ice-cold 10% TCA. The pellet was dissolved in 0.5 ml of 1 M NaOH and transferred to scintillation tubes with 3 ml of scintillant. Radioactivity was measured on a β-scintillation counter (LKB Wallace, Finland).
# Table 3. The effect of the chelators on ^3H-thymidine, ^3H-leucine, or ^3H-uridine incorporation into SK-N-MC neuroepithelioma cells. Cells were incubated for 20 hr at 37° C. with either DFO (100 μM) or the other chelators (50 μM). Following this, either ^3H-thymidine, ^3H-leucine, or ^3H-uridine (1 μCi/mL) were added and the cells incubated for an additional 2 h at 37° C. (see Methods for details). Results are Mean±SD (4–5 determinations) from a typical experiment of 2–4 experiments performed.
Structure (SMILES),"3H-Leucine incorporation, % Control","3H-Thymidine incorporation, % Control","3H-Uridine incorporation, % Control"
"O=C(NN=Cc1c(O)ccc2ccccc12)c1ccncc1 [Chelator 311, 2-hydroxy-1-naphthylaldehyde isonicotinoyl hydrazone, reference compound]",2 % Control and 2 ± 0.3 % Control,0.1 % Control and 0.1 ± 0.1 % Control,5 % Control and 5 ± 2 % Control
"CC(=O)N(O)CCCCCNC(=O)CCC(=O)N(O)CCCCCNC(=O)CCC(=O)N(O)CCCCCN [DFO, desferrioxamine, reference compound]",9 % Control and 9 ± 0.7 % Control,29 ± 13 % Control,34 % Control and 34 ± 5 % Control
"O=C(NN=Cc1ccco1)c1ccncc1 [FIH, 2furoylcarboxaldehyde isonicotinoyl hydrazone]",78 ± 5 % Control,17 ± 4 % Control,48 ± 10 % Control
"O=C(NN=Cc1ccccn1)c1ccccc1 [PCBH, 2-pyridylcarboxaldehyde benzoyl hydrazone]",30 ± 13 % Control,72 % Control and 72 ± 16 % Control,31 ± 9 % Control
"O=C(NN=Cc1ccccn1)c1cccs1 [PCTH, 2-pyridylcarboxaldehyde 2-thiophenecarboxyl hydrazone]",21 ± 6 % Control,64 % Control and 64 ± 14 % Control,43 ± 2 % Control
